The source made the active and inactive calls.
Legend:
[1] = molecular target: 72 kDa type IV collagenase (Homo sapiens, UniProt P08253); test: Dose Response validation of uHTS RPN11 inhibitor hits using a MMP-2 Fluorescence assay.; type: functional
[2] = molecular target: T1, Low molecular weight phosphotyrosine protein phosphatase (Homo sapiens, UniProt P24666); type: functional; details: read-out: IC50_Mean
T1 sequence (P24666 whole entry): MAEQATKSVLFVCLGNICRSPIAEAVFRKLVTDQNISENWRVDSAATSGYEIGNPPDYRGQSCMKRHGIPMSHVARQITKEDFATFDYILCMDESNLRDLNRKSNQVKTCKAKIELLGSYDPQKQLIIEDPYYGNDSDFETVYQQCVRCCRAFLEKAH

[3] = molecular target: Prothrombin (Bos taurus, UniProt P00735); test: thrombin protease inhibitors – biochemical, fluorescence polarization, uHTS hits, dose response (AID 602369); type: functional
[4] = molecular target: T1, Low molecular weight phosphotyrosine protein phosphatase; type: functional; details: read-out: IC50_Mean; remark: listed apart in the source
[5] = molecular target: 26S proteasome non-ATPase regulatory subunit 14 (Homo sapiens, UniProt O00487); test: inhibition of proteasome subunit RPN11 – biochemical, fluorescence polarization, uHTS hits, confirmation (AID 602368); type: functional
[6] = molecular target: Mu-type opioid receptor (Homo sapiens, UniProt P35372); type: functional, cell-based;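 note: U2OS cells with beta-arrestin recruitment to OPRM1 by beta-gal complementation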
Mu-type opioid receptor, sequence (P35372 whole entry): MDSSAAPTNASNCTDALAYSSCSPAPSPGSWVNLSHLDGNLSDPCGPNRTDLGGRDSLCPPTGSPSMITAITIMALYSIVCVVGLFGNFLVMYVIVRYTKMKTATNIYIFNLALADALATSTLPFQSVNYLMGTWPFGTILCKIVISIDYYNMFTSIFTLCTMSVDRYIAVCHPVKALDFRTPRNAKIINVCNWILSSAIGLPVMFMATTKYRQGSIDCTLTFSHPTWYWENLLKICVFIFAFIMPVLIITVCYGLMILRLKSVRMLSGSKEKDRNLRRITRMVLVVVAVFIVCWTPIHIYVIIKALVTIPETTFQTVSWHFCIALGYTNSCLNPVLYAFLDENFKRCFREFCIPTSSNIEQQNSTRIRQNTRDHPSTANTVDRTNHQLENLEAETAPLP

[7] = molecular target: 5-hydroxytryptamine receptor 2A (Mus musculus, UniProt P35363); type: functional, cell-based;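 note: CHO-K1 cells with tagged receptor and beta-arrestin; agonist potency measured as compound-induced activation of the receptor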
5-hydroxytryptamine receptor 2A, sequence (P35363 whole entry): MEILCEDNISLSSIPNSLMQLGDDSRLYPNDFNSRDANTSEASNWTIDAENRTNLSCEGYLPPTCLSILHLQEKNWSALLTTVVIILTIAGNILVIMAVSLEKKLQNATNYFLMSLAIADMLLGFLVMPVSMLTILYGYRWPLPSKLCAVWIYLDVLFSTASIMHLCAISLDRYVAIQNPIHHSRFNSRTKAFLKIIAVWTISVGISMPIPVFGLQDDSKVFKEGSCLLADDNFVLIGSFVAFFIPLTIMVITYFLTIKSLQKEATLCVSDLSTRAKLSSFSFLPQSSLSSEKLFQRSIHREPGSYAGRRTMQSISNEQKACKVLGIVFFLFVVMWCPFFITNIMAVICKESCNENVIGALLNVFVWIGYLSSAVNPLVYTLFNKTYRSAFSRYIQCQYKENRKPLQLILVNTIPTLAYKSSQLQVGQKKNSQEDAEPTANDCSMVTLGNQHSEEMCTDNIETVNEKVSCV

[8] = African trypanosome bloodstream form growth inhibition – STIB900 strain, plate reader, cherry pick, dose response (AID 651893); type: functional, cell-based, Trypanosoma brucei rhodesiense; details: Trypanosoma brucei
[9] = L6 myocyte viability loss – cell-based, plate reader, cherry-pick, cytotoxicity control, dose response (AID 651896); type: functional
[10] = Inhibition of T. cruzi Tulahuen strain amastigotes in L-6 muscle cells Measured in Cell-Based and Microorganism Combination System Using Plate Reader - 2138-03_Inhibitor_Dose_CherryPick_Activity.; type: functional; details: Rattus norvegicus, L6
[11] = antileishmanial activity on axenic amastigotes – plate reader, cherry pick, dose response (AID 651891); type: functional, cell-based; details: Leishmania donovani
[12] = Inhibition of Plasmodium falciparum NF54 Measured in Cell-Based System Using Plate Reader - 2138-11_Inhibitor_Dose_CherryPick_Activity.; type: functional
[13] = intracellular Trypanosoma cruzi inhibitors in host cells – cell-based, plate reader, cherry-pick samples, set 3, dose response (AID 651818); type: functional;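 note: compounds incubated with infected cells for about four days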
[14] = molecular target: T2, Protein disulfide-isomerase (Homo sapiens, UniProt P07237); test: inhibition of PDI-driven insulin aggregation – biochemical, turbidity, absorbance, cherry-picked samples, dose response (AID 602350); type: functional
T2 sequence (P07237 whole entry): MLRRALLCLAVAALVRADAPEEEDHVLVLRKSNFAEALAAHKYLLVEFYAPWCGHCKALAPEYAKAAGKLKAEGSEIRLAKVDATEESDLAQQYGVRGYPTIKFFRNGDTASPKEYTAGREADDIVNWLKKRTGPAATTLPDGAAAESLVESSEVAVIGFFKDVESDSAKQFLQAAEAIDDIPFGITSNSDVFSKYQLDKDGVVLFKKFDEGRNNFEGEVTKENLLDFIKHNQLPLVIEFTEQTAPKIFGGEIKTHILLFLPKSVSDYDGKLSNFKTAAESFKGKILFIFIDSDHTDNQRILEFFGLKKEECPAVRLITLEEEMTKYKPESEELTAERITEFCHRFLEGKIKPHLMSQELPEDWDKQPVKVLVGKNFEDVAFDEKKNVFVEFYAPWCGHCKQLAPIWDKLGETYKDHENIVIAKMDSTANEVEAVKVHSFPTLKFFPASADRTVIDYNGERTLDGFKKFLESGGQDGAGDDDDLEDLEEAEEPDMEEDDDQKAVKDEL

[15] = molecular target: T2, Protein disulfide-isomerase; test: inhibition of PDI-mediated insulin reduction – biochemical, turbidity, absorbance, cherry-picked samples, set 2, dose response (AID 624274); type: functional
[16] = molecular target: T3, ATP-dependent translocase ABCB1 (Homo sapiens, UniProt P08183); test: P-gp JC-1 efflux blockade concentration-response – Jurkat-DNR cells, flow cytometry, set 2, dose response (AID 504569); type: functional; details: read-out: EC50_MICROM_;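 note: potency of pump inhibitors that raise cellular JC-1 green fluorescence up to the nicardipine level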
T3 sequence (P08183 whole entry): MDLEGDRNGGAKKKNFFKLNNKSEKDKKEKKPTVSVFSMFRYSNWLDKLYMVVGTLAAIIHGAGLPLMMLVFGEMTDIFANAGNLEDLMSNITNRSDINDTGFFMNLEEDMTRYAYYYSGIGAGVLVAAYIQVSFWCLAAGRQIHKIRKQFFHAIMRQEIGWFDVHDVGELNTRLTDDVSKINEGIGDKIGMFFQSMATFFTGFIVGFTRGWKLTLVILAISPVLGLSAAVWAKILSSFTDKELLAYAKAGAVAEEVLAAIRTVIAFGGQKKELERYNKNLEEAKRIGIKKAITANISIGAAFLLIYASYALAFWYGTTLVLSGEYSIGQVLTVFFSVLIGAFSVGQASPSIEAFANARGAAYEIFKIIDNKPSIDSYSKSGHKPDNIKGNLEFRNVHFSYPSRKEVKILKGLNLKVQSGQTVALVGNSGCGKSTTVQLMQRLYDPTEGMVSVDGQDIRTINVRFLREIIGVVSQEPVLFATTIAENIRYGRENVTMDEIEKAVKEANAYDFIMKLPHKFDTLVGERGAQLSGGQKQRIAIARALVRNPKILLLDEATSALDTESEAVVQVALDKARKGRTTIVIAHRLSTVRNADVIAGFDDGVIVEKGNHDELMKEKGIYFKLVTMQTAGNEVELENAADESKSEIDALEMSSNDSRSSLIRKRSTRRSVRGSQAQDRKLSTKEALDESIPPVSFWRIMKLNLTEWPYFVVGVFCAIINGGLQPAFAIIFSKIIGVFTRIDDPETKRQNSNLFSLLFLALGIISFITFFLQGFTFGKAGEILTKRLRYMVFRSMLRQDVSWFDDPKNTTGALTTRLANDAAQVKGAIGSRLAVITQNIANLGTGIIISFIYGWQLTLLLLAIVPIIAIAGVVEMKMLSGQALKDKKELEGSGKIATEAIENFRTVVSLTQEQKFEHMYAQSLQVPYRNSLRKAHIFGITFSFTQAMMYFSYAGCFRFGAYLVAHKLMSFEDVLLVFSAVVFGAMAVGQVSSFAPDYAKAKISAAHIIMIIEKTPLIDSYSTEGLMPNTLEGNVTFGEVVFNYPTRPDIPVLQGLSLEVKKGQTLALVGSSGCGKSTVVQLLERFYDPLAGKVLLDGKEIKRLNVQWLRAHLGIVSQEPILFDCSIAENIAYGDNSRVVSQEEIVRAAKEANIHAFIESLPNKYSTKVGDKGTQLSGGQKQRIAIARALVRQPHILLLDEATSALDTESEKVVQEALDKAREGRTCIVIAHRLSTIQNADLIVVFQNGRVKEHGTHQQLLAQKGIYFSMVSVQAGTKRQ

[17] = molecular target: T3, ATP-dependent translocase ABCB1; test: inhibition of BCRP-mediated JC-1 efflux – Ig-MXP3 cells, flow cytometry, set 2, dose response (AID 504566); type: functional; details: read-out: EC50_MICROM_;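 note: flow cytometry median green fluorescence of retained JC-1 dye; potency of efflux pump inhibition measured as rising substrate retention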
[18] = molecular target: T4, Caspase-3 (Homo sapiens, UniProt P42574); test: Dose-response confirmation of uHTS inhibitor hits of Sentrin-Specific Protease 8 in a Caspase-3 Fluorescence assay.; type: functional
T4 sequence (P42574 whole entry): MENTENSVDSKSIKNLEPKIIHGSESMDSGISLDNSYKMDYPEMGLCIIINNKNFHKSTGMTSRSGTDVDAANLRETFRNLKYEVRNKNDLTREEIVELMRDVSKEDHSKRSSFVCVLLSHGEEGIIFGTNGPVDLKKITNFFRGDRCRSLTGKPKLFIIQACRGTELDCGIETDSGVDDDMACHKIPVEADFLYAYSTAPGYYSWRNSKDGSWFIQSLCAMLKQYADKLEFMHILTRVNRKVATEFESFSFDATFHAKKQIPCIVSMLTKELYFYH

[19] = molecular target: T5, Sentrin-specific protease 8 (Homo sapiens, UniProt Q96LD8); type: functional
T5 sequence (Q96LD8 whole entry): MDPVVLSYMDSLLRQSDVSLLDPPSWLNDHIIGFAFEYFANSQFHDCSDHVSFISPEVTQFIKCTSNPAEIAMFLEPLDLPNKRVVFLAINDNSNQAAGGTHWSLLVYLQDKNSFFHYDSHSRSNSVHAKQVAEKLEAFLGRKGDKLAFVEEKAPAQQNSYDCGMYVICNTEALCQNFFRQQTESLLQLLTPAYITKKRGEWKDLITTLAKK

[20] = molecular target: T5, Sentrin-specific protease 8; type: functional; remark: listed apart in the source
[21] = molecular target: Broad substrate specificity ATP-binding cassette transporter ABCG2 (Homo sapiens, UniProt Q9UNQ0); test: blockers of JC-1 export by ABCG2 – Ig-MXP3 cells, flow cytometry, dose response (AID 1690); type: functional
Broad substrate specificity ATP-binding cassette transporter ABCG2, sequence (Q9UNQ0 whole entry): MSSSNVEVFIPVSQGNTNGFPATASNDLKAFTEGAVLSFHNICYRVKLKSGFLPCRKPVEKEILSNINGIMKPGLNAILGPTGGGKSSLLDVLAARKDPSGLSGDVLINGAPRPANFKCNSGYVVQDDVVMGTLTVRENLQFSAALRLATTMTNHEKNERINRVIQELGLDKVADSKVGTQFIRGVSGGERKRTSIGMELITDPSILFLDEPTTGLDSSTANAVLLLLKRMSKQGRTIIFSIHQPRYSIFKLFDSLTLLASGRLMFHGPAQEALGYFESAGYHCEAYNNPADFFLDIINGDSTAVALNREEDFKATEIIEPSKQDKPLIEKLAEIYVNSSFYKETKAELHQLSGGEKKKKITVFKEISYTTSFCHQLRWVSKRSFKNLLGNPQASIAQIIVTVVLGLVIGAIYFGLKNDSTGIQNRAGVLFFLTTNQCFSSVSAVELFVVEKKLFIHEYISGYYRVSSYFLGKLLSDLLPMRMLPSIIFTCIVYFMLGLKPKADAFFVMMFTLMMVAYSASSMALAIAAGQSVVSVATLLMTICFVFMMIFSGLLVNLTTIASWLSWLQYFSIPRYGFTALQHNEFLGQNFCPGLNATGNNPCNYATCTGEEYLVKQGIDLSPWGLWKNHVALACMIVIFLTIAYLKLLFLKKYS

[22] = molecular target: Dual specificity protein phosphatase 3 (Homo sapiens, UniProt P51452); test: VHR phosphatase inhibition, dose response, selectivity assay for STEP inhibitor project, biochemical (AID 602374); type: functional; details: read-out: IC50_Mean
Dual specificity protein phosphatase 3, sequence (P51452 whole entry): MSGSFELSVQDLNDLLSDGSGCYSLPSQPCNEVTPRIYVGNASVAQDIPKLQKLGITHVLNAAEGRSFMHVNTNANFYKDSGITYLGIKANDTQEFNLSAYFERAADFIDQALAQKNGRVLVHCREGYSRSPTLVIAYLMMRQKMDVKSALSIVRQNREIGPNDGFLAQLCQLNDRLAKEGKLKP

[23] = molecular target: T6, Tyrosine-protein phosphatase non-receptor type 11 (Homo sapiens, UniProt Q06124); test: PTPN11 enzyme inhibitors – biochemical, selectivity assay for STEP inhibitor project, dose response (AID 602367); type: functional; details: read-out: IC50_Mean
T6 sequence (Q06124 whole entry): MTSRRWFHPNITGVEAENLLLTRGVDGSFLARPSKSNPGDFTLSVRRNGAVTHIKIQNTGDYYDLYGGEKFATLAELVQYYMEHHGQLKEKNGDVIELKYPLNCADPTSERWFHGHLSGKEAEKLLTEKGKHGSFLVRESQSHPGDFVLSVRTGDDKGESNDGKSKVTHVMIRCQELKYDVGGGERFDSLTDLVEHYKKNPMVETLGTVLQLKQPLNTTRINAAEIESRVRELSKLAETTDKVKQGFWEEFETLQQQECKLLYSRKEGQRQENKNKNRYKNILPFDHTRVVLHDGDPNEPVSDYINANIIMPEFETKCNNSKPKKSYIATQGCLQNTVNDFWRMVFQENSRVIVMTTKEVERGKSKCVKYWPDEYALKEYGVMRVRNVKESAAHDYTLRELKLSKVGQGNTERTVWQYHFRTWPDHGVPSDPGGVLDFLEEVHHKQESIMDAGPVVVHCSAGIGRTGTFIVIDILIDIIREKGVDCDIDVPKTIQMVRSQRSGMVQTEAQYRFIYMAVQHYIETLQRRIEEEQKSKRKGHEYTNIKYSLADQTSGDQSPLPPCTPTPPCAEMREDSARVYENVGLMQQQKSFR

[24] = molecular target: Tyrosine-protein phosphatase non-receptor type 22 (Homo sapiens, UniProt Q9Y2R2); test: lymphoid phosphatase LYP inhibitors – biochemical, selectivity assay for STEP inhibitor project, dose response (AID 624241); type: functional
Tyrosine-protein phosphatase non-receptor type 22, sequence (Q9Y2R2 whole entry): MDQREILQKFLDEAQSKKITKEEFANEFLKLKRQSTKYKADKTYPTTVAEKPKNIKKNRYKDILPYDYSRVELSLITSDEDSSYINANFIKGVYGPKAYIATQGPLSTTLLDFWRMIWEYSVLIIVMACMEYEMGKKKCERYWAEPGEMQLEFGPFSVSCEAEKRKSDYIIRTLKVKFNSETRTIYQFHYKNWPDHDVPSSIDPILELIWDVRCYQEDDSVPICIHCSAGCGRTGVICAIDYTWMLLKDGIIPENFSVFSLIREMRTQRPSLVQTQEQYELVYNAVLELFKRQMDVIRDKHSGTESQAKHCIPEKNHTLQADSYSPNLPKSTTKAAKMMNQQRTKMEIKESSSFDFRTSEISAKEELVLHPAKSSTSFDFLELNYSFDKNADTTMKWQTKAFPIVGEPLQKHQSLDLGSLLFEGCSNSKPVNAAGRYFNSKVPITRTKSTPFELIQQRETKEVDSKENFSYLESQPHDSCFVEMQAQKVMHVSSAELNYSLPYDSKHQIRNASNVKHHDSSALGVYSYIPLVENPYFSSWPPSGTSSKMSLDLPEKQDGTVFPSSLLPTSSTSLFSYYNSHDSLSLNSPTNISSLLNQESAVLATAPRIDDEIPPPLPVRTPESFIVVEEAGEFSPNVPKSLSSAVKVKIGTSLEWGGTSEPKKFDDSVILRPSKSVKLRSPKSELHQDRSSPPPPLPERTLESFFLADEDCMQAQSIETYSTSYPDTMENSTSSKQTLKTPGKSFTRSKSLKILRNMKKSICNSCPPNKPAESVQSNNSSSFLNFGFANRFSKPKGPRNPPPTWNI

[25] = molecular target: T7, Tyrosine-protein phosphatase non-receptor type 5 (Homo sapiens, UniProt P54829); test: PTPN5 enzyme inhibition – biochemical, fluorescence intensity, uHTS hits, confirmation (AID 602372); type: functional; details: read-out: IC50_Mean
T7 sequence (P54829 whole entry): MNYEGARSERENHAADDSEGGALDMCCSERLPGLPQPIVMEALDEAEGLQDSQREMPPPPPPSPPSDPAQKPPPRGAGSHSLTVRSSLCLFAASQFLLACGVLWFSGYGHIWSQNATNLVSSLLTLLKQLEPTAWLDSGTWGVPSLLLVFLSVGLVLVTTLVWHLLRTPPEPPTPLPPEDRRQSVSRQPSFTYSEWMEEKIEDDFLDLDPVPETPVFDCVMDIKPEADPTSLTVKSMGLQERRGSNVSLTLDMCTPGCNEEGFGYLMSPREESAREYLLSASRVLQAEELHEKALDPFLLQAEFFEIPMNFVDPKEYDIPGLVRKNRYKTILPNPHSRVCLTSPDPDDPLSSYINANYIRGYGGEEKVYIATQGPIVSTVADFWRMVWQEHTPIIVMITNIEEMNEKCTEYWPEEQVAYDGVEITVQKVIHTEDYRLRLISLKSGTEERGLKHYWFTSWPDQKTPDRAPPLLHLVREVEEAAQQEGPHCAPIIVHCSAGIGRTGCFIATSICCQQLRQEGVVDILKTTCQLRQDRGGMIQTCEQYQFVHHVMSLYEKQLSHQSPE

[26] = test system: HEK293; test: cells; type: functional, cell-based; details: Homo sapiens
[27] = molecular target: T8, Nuclear receptor subfamily 0 group B member 1 (Homo sapiens, UniProt P51843); test: Luminescence-based cell-based high throughput dose response assay for inhibitors of the orphan nuclear receptor subfamily 0, group B, member 1 (DAX1; NR0B1). [Related pubchem assays (depositor defined):AID504766, AID504790]; type: functional
T8 sequence (P51843 whole entry): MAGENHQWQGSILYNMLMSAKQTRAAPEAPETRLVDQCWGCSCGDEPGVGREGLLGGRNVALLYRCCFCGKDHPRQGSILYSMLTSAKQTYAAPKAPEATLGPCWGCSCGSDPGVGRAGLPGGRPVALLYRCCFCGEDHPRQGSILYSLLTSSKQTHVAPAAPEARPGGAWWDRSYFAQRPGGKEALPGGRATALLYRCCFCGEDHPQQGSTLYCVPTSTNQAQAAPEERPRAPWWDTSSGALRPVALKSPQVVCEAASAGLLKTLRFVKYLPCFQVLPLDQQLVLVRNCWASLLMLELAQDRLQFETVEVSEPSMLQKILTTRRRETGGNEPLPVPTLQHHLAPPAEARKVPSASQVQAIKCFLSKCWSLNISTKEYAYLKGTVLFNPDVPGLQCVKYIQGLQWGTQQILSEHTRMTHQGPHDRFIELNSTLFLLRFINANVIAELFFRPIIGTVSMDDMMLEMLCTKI

[28] = molecular target: Glucose-6-phosphate 1-dehydrogenase (Homo sapiens, UniProt P11413); test: inhibition of Homo sapiens G6PD, dose series – biochemical, fluorescence, selectivity assay for P. falciparum G6PD inhibitor project, dose response (AID 504792); type: functional
[29] = microbe, parasite or virus in culture; type: functional; details: Mycobacterium tuberculosis
[30] = molecular target: Hepatocyte nuclear factor 4-alpha (Homo sapiens, UniProt P41235); type: functional, cell-based;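 note: biochemical luminescence-based dose-response counterscreen measuring inhibition of HNF4 dimerization, run alongside a screen for blockers of ABHD5–perilipin-5 interaction; split luciferase complementation of HNF4 fusion proteins in cell lysate measuring dimerization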
[31] = molecular target: T9, Ubiquitin-conjugating enzyme E2 N (Homo sapiens, UniProt P61088); type: functional;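 note: Dose-response confirmation in a TR-FRET assay detecting UBC13-driven polyubiquitin chain formation, inhibition measured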
T9 sequence (P61088 whole entry): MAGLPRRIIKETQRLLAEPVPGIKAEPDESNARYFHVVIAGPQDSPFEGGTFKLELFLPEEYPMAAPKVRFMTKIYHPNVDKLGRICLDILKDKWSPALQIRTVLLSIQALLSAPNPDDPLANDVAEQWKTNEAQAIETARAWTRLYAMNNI

[32] = molecular target: FAD-linked sulfhydryl oxidase ALR (Homo sapiens, UniProt P55789); test: ALR-catalysed DTT oxidation blockers – biochemical, H2O2 detection, luminescence, cherry-pick, dose response (AID 493248)
[33] = molecular target: T10, DNA repair protein RAD52 homolog (Homo sapiens, UniProt P43351); type: functional, biochemical
T10 sequence (P43351 whole entry): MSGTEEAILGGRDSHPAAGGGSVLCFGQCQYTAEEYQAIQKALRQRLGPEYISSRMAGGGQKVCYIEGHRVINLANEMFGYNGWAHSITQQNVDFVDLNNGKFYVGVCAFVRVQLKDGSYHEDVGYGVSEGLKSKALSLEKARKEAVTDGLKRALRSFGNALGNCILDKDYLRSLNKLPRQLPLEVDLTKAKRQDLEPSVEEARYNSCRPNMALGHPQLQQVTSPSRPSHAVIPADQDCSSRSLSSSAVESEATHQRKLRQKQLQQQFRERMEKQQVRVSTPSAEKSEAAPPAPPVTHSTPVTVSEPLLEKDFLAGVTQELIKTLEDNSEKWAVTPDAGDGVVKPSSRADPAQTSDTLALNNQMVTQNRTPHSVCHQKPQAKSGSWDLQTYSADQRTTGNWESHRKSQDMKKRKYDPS

72 kDa type IV collagenase, sequence (P08253 whole entry): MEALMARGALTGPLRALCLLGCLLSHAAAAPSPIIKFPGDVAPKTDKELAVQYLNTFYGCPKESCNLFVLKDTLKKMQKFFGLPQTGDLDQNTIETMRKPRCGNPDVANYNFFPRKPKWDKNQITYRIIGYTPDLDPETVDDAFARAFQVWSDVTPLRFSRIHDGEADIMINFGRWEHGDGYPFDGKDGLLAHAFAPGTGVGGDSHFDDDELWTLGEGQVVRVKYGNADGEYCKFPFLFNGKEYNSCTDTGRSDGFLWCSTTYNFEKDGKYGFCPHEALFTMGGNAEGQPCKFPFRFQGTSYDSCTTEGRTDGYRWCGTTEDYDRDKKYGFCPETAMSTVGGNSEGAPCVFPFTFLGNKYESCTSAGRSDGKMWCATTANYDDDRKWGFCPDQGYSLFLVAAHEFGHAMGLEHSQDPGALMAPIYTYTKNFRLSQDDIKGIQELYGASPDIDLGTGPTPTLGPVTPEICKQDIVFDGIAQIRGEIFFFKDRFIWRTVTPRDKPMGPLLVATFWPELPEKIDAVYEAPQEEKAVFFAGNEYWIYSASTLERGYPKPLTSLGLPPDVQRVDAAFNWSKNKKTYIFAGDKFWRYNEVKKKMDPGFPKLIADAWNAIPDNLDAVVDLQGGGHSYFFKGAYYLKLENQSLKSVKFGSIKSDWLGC

## COc1ccc(NC(=O)CCn2c(=S)[nH]c3ccccc3c2=O)cc1Cl
[1]
  IC50: 4.32 µM (active)
[2]
  IC50: 68.3 µM (inactive)
[3]
  IC50: > 100 µM (inactive)
[4]
  IC50: 12 µM (active)
[5]
  IC50: 26.3 µM (active)

## COc1cccc(CN2CCN(C(=O)c3ccco3)CC2)c1
[6]
  EC50: 92.5 µM (inactive)
[7]
  EC50: 1.16 µM (active)

## C[C@H]1CN([C@@H](C)CO)C(=O)c2cccc(NC(=O)c3ccncc3)c2O[C@H]1CN(C)Cc1ccccc1
[8]
  IC50: 51.5 µM (inactive)
[9]
  IC50: > 100 µM (inactive)
[10]
  IC50: 19.2 µM (inactive)
[11]
  IC50: > 100 µM (inactive)
[12]
  IC50: 19.2 µM (inactive)
[13]
  AC50: 0.267 µM (active)

## C[C@H]1CN([C@@H](C)CO)C(=O)c2cccc(NS(C)(=O)=O)c2O[C@H]1CN(C)Cc1ccc(Oc2ccccc2)cc1
[14]
  AC50: < 0.003 µM (active)
[15]
  AC50: 0.003 µM (active)

## O=C(c1ccoc1)N1CCN(c2cc(-c3ccccc3)nc3cc(-c4cccc(Cl)c4)nn23)CC1
[16]
  EC50: 9.03 µM (active)
[17]
  EC50: 1 µM (active)

## COc1ccc(OC)c(S(=O)(=O)N(C)CC(=O)N2CCc3ccccc3C2)c1
[18]
  IC50: 30.8 µM (active)
[19]
  IC50: 8.07 µM (active)
[20]
  IC50: 9.57 µM (active)

## Cc1cc(C)c(C#N)c(SCc2c(F)cccc2[N+](=O)[O-])n1
[21]
  EC50: 3.82 µM (active)

## CCN1CCN(C(=S)c2ccc(O)cc2)CC1
[22]
  IC50: 0.74 µM (active)
[23]
  IC50: 0.712 µM (active)
[24]
  IC50: 45.1 µM (inactive)
[25]
  IC50: 20.1 µM (inactive)
[26]
  IC50: > 67.6 µM (inactive)
[27]
  IC50: > 67.6 µM (inactive)
[28]
  IC50: > 80 µM (inactive)

## CCSc1ccc2c(c1)N(CCCN1CCN(C)CC1)c1ccccc1S2
[29]
  CC50: 16.3 µM (active)
[30]
  IC50: 29.9 µM (inactive)
[31]
  IC50: > 20 µM (inactive)
[32]
  AC50: 1.09 µM (active)
[33]
  AC50: 14.9 µM (active)
